# Measured values from US7691969B2, “Isolated GRP94 ligand binding domain polypeptide and nucleic acid encoding same, crystalline form of same, and screening methods employing same” (Duke University, priority 2001, dated 2010).
# What was measured:
# GRP94 [1] = target: T1, GRP94 (Sus scrofa, UniProt Q29092); experiment: Tryptophan fluorescence (tertiary conformational state); assay type: biochemical, porcine; conditions: 50 μM NECA, 50 μM geldanamycin, 2.5 mM ATP or 2.5 mM ADP; 1 h 37° C.
# T1 construct: GRP94 was purified from porcine pancreas rough microsomes; from tissue; host or cells: porcine pancreas rough microsomes (lumenal contents)
# T1 sequence (Q29092 22-804): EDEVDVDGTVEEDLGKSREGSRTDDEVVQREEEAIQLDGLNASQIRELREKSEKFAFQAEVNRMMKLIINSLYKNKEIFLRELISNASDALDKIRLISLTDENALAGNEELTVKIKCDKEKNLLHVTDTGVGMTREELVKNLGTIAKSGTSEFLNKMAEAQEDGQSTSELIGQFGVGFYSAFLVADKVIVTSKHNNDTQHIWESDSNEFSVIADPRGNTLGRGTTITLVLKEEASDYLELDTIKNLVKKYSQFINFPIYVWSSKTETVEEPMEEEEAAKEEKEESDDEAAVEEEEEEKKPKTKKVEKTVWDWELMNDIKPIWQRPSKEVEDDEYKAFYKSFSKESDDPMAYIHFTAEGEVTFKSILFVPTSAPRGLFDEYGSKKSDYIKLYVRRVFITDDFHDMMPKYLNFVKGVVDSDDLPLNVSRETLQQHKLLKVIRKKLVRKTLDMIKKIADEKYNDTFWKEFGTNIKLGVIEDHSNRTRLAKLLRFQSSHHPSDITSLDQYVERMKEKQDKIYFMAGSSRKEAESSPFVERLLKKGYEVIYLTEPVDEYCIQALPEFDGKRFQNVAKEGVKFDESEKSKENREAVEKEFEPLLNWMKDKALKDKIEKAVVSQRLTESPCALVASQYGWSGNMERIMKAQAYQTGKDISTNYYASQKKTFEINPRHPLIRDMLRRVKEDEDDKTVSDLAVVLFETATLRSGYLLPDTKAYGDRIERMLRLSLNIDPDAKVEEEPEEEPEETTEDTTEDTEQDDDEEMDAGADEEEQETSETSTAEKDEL
# Experimental: Tryptophan Fluorescence. Tryptophan fluorescence measurements were conducted in a FLUOROMAX™ spectrofluorometer (Spex Industries, Inc. of Edison, N.J.) with the slit widths set to 1 nm for both excitation and emission. […] All spectra were corrected by subtraction of buffer or buffer plus ligand samples. GRP94 (50 μg/ml) was incubated in buffer A supplemented with 10 mM Mg(OAc)2 and the following concentrations of ligands for 1 hour at 37° C. […] Samples were then cooled to room temperature, transferred to a quartz cuvette, and the spectra collected.
# GRP94 [2] = target: T1, GRP94; experiment: [3H]-NECA competitive displacement assay; assay type: binding, porcine; conditions: 10 mM Mg(OAc)2 versus nominal magnesium
# Experimental: (§1) Where indicated, binding reactions were performed in either buffer C (10 mM Tris, pH 7.5, 50 mM KCl, 5 mM MgCl2, 2 mM DTT, 0.01% NP-40, 20 mM Na2MoO4) or 50 mM Tris, pH 7.5, 10 mM Mg(OAc)2. […] Vacuum filtration was performed with an Amersham Pharmacia Biotech (Piscataway, N.J.) vacuum filtration manifold.
# All binding reactions were performed in triplicate and corrected by subtraction of background values, determined in binding reactions lacking GRP94.
# BiP = experiment: [3H]-NECA binding assay (vacuum filtration); design: species or system porcine; conditions: 20 nM [3H]-NECA, 60 min on ice
# GRP94 [3] = target: T1, GRP94; experiment: GRP94 autophosphorylation assay; assay type: biochemical, porcine; conditions: 180 μM NECA or radicicol in 3.6% DMSO, 5 μg/ml heparin, 5 mM GTP
# Experimental: (§2) Phosphorylation Assays. To assay for GRP94 autophosphorylation, 1 μM GRP94 was incubated with γ-[^32P]ATP (6000 cpm/pmol) (Amersham Pharmacia Biotech of Piscataway, N.J.), diluted with cold ATP to yield a final concentration of 0.15 mM ATP in a buffer containing 10 mM Mg(OAc)2 and 50 mM K-Hepes, pH 7.4. For the casein kinase assay, 1 unit of casein kinase II was incubated as described above, with the addition of 4 μM casein. […] The 25 μl reaction mixtures were incubated at 37° C. for 1 hour and quenched by addition of 10% trichloroacetic acid. Samples were analyzed by 10% SDS-PAGE gels and the phosphorylated species were quantitated using a Fuji MACBAS1000™ phosphorimaging system (Fuji Medical Systems of Stamford, Conn.).
# GRP94 [4] = target: T1, GRP94; experiment: [3H]-NECA binding assay (vacuum filtration); design: species or system porcine
# Experimental: as §1
# Filters were rapidly washed with 3×4 ml of ice cold 50 mM Tris, pH 7.5, placed in 5 ml of scintillation fluid (SAFETYSOLVE™, RPI of Mt. Prospect, Ill.), vortexed, and counted by liquid scintillation spectrometry. […] All binding reactions were performed in triplicate and corrected by subtraction of background values, determined in binding reactions lacking GRP94.
# GRP94 [5] = target: T1, GRP94; experiment: ATPase assay (HPLC of ATP/ADP); assay type: biochemical, porcine
# Experimental: ATPase Assay. 100 μl reactions consisting of 1 μM GRP94 monomer, various concentrations of MgATP (pH 7.0), and 50 mM K-Hepes, pH 7.4, were incubated for two hours at 37° C. Samples were then spun through a CENTRICON®-30 (Amicon of Beverly, Mass.) at 10,000 rpm, 4° C. to separate protein from nucleotide. A final concentration of 50 mM (NH4)2HPO4, pH 7.0, and 4 μM AMP, pH 7.0, was added to dilutions of the above samples and centrifuged at 15,200 rpm for 5 minutes at 4° C. 100 μL of supernatant was then fractionated on a […]™ SAX column (Alltech of Deerfield, Ill.), using a Series 1050 Hewlett Packard HPLC system. Elution of nucleotides was performed by step gradient elution using a mobile phase of 150 mM (NH4)2HPO4, pH 5.2, at 1.2 ml/min for the first ten minutes, followed by 300 mM (NH4)2HPO4, pH 5.2, at a flow rate of 2 ml/min for the remainder of the elution. In this protocol, ADP and ATP were well resolved, with ADP eluting at 7 minutes and ATP at 12 minutes. Peak height values were used in calculations of percent hydrolysis and ADP formation. Spontaneous hydrolysis was determined for each ATP concentration in paired incubations lacking GRP94. The AMP was used as an internal reference standard to control for equivalent sample loading.
# GRP94 [6] = target: T1, GRP94; experiment: Isothermal titration calorimetry; assay type: binding, porcine
# Experimental: Isothermal Titration Calorimetry. Isothermal calorimetry experiments were performed at 25° C. using a MSC calorimeter (MicroCal Inc. of Northampton, Mass.). […] The reaction chamber (1.3 mL) contained 5 μM GRP94. Necessary corrections were made by subtracting the heats of dilution resulting from buffer addition to protein solution and ligand solution into buffer.
# casein kinase II = casein kinase II (Homo sapiens, UniProt P68400); experiment: Casein kinase assay; assay type: biochemical; conditions: 180 μM NECA or radicicol in 3.6% DMSO, 5 μg/ml heparin, 5 mM GTP; 4 μM casein
# Sequence of casein kinase II (P68400 whole entry): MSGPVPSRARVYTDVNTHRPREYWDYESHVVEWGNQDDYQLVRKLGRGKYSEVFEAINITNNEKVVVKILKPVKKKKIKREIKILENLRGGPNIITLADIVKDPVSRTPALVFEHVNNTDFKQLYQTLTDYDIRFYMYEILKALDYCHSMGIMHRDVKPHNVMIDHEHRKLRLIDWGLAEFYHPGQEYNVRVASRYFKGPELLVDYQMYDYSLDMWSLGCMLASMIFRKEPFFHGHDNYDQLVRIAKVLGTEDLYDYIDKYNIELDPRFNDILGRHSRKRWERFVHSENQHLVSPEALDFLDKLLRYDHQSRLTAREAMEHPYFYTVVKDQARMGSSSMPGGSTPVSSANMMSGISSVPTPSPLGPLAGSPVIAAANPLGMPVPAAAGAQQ
# Sequence of casein kinase II (P67870 whole entry partner): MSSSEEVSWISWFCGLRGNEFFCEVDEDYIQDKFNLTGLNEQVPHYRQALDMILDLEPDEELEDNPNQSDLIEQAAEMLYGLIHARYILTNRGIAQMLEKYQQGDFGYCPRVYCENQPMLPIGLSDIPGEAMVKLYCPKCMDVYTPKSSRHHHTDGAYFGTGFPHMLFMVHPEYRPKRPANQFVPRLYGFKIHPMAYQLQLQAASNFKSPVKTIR
# Experimental: as §2
smiles,measurement,setting,value
"CCNC(=O)[C@H]1O[C@@H](n2cnc3c(N)ncnc32)[C@H](O)[C@@H]1O [NECA, N-ethylcarboxamidoadenosine]",change of GRP94 tryptophan fluorescence,GRP94 [1],increased the tryptophan fluorescence
same,effect of excess Mg2+ on binding to GRP94,GRP94 [2],without effect on the binding of NECA or adenosine to GRP94
same,[3H]-NECA binding activity,BiP,[^3H]-NECA binding was not observed for Hsp90 or BiP
same,inhibition of GRP94 autophosphorylation (GRP94-derived kinase) activity,GRP94 [3],"neither NECA nor radicicol, both of which bind to the N-terminal nucleotide binding domain of GRP94, significantly inhibit GRP94 derived or casein kinase II activity below the solvent background"
same,slope of Hill plot,GRP94 [4],1.2
same,[3H]-NECA binding activity,"GRP94 [4]; 20 nM [3H]-NECA, 60 min on ice",displayed readily detectable [^3H]-NECA binding activity
same,maximal binding stoichiometry (saturation curve),GRP94 [4]; FIG. 9B,1 molecule of NECA per molecule of GRP94 dimer
same,binding stoichiometry,GRP94 [4]; radioligand filtration,0.5 mol [^3H]-NECA/mol GRP94 monomer
same,inhibition of GRP94 ATPase activity,GRP94 [5],sensitive to inhibition by NECA
same,binding stoichiometry at saturation (summary of ligand binding studies and calorimetry),GRP94 [6],1 mol NECA:mol GRP94 dimer
same,binding stoichiometry by isothermal titration calorimetry,"GRP94 [6]; 5 μM GRP94, 152 μM NECA stock, 25° C.",1.1 mol NECA/mol GRP94 dimer
same,inhibition of casein kinase II activity,casein kinase II,"neither NECA nor radicicol, both of which bind to the N-terminal nucleotide binding domain of GRP94, significantly inhibit GRP94 derived or casein kinase II activity below the solvent background"
